IC50 data for 22 compounds are collected here from patent US9776995B2, “Bicyclic sulfonamide compounds as sodium channel inhibitors” (AMGEN INC., priority 2013, dated 2017).

Where two headings read alike, the source gives them in different places. Some results are limits rather than exact numbers.

In one data set the target is Nav 1.7 (Homo sapiens (Human), UniProt Q15858). Put plainly: in-vitro Nav 1.7 PX data. Type of data set: cell-based.
The target in another data set is Nav 1.5 (Homo sapiens (Human), UniProt Q14524). Put plainly: in-vitro Nav 1.5 PX data. The settings on record: read-out: Nav 1.5 PX IC50.
Chain of Nav 1.5 (Q14524 whole entry): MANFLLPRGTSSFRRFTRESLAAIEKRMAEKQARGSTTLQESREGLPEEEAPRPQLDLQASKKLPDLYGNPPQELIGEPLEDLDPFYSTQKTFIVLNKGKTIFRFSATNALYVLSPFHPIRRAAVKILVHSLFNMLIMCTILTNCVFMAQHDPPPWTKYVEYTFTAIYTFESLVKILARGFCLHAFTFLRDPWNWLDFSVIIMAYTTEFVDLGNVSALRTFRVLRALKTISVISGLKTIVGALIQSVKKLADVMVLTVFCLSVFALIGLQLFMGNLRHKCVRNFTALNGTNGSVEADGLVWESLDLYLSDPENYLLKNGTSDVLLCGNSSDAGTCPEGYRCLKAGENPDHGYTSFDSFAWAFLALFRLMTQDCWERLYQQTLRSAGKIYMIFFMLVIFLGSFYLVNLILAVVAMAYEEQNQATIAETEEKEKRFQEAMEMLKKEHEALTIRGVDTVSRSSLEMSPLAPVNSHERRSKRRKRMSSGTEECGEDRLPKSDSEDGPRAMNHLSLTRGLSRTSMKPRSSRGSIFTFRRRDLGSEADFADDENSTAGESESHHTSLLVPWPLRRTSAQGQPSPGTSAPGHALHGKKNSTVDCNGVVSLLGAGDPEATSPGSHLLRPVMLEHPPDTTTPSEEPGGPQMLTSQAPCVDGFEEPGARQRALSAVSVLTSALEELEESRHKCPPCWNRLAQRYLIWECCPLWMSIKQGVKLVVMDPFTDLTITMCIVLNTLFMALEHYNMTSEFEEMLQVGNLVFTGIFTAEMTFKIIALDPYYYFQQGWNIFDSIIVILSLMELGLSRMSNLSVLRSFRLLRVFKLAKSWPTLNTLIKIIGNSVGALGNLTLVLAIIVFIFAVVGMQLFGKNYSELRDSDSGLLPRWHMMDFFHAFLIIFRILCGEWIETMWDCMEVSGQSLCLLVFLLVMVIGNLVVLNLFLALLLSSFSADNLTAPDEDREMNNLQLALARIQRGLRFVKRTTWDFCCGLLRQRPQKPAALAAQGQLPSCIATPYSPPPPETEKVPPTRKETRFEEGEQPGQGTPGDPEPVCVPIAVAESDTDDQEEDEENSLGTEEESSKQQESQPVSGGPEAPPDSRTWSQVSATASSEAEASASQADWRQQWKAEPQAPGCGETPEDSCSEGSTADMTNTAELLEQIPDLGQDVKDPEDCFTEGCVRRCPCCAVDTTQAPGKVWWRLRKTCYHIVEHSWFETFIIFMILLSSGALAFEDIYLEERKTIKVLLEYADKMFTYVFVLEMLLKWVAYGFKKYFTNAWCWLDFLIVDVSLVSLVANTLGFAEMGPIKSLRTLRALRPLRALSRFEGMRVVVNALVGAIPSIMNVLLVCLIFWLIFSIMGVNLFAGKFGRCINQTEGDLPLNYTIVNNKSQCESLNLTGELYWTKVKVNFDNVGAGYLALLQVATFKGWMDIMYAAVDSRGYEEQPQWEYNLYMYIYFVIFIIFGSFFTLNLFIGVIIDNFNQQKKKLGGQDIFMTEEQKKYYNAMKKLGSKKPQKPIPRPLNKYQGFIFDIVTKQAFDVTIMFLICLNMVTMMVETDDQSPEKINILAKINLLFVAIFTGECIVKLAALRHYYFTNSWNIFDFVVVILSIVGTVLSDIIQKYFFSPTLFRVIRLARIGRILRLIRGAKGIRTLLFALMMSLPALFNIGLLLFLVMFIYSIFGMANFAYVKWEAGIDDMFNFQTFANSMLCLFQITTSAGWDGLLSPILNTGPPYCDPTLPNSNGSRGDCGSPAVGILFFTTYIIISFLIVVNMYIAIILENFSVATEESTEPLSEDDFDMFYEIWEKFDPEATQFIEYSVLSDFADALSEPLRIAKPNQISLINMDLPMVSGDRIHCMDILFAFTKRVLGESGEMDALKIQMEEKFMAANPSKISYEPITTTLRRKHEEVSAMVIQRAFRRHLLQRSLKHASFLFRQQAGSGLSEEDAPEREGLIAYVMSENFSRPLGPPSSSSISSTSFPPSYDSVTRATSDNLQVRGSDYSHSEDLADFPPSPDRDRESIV

Chain of Nav 1.7 (Q15858 whole entry): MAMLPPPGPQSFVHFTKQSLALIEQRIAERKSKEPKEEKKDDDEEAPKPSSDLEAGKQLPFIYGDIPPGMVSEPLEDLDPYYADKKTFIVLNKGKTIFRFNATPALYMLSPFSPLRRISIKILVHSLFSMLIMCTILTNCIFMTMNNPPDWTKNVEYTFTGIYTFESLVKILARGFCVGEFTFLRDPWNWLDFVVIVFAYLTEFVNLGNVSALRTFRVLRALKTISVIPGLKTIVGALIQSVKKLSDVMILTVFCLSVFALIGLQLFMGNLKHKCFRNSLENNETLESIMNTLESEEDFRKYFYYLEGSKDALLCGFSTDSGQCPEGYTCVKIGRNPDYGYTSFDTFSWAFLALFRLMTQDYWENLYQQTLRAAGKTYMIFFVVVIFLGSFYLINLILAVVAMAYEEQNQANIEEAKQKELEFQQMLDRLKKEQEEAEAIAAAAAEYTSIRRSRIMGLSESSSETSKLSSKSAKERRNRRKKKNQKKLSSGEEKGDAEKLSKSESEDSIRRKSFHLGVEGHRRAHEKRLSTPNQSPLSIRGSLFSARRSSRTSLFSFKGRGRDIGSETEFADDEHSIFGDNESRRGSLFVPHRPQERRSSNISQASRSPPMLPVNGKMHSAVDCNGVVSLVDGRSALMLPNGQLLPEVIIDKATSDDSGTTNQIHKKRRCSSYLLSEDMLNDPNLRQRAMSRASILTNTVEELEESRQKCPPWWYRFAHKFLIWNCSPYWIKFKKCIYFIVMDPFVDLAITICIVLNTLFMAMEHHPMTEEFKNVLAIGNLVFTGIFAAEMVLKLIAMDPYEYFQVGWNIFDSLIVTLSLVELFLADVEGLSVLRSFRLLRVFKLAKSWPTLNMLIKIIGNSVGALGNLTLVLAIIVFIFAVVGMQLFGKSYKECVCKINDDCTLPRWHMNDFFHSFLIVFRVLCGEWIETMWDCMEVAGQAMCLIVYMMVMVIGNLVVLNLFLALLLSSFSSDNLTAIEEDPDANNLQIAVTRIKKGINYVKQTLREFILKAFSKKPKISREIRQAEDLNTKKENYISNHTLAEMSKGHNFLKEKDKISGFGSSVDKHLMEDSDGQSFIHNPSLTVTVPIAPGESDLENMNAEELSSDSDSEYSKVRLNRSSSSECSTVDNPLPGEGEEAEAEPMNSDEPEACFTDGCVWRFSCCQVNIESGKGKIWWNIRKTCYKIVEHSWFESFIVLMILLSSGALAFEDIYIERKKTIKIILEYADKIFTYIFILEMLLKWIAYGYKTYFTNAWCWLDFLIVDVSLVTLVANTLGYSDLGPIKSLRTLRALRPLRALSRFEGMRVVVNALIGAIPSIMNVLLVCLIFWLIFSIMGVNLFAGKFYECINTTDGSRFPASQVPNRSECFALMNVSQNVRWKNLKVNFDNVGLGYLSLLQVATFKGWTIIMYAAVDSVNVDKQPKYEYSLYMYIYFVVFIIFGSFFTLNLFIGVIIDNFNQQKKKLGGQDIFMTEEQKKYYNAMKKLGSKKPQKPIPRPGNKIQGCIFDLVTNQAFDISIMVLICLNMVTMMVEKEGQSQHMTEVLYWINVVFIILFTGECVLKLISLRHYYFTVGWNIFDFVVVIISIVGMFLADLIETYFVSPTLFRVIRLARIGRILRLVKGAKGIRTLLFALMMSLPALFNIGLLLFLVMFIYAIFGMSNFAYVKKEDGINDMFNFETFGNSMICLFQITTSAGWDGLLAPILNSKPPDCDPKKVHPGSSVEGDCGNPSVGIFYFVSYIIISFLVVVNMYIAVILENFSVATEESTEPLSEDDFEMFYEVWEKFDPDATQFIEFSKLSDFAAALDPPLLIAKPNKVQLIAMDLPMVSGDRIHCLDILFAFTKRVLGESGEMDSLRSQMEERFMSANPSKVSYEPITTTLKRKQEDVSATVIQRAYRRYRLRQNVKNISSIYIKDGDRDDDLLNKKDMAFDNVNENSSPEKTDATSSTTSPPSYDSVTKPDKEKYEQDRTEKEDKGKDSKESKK

In general, IC50 refers to the concentration that inhibits the measured activity by half. Take `O=S(=O)(Nc1ccon1)c1ccc2c(-c3ccc(-c4cccc(C(F)(F)F)c4)cc3CO)nccc2c1` [Example 146, 1-(3-(hydroxymethyl)-3′-(trifluoromethyl)-4-biphenylyl)-N-3-isoxazolyl-6-isoquinolinesulfonamide]: the results for the IC50 at Nav 1.7 (in-vitro Nav 1.7 PX data) and on Nav 1.5 (in-vitro Nav 1.5 PX data) were 120 nM and above 10000 nM, respectively.

Regarding `COc1ccc(-c2ccc(C(F)(F)F)cc2)cc1-c1nccc2cc(S(=O)(=O)Nc3ccncn3)ccc12` [Example 147, 1-(4-methoxy-4′-(trifluoromethyl)-3-biphenylyl)-N-4-pyrimidinyl-6-isoquinolinesulfonamide], the IC50 against Nav 1.7 (in-vitro Nav 1.7 PX data) was 71.9 nM; at Nav 1.5 (in-vitro Nav 1.5 PX data), above 10000 nM.

On to `Cc1ccc(OCc2ccccc2)cc1-c1nccc2cc(S(=O)(=O)Nc3ccncn3)ccc12` [Example 151, 1-(5-(benzyloxy)-2-methylphenyl)-N-4-pyrimidinyl-6-isoquinolinesulfonamide], for which the half-inhibitory concentration (IC50) was 424 nM on Nav 1.7 (in-vitro Nav 1.7 PX data) and above 30000 nM on Nav 1.5 (in-vitro Nav 1.5 PX data).

Take `COc1cc(-c2ccc(Cl)c(F)c2)c(C#N)cc1-c1nccc2cc(S(=O)(=O)Nc3ccncn3)ccc12` [Example 154, 1-(4′-chloro-2-cyano-3′-fluoro-5-methoxy-4-biphenylyl)-N-4-pyrimidinyl-6-isoquinolinesulfonamide]: the IC50 at Nav 1.7 (in-vitro Nav 1.7 PX data) is 43.5 nM; at Nav 1.5 (in-vitro Nav 1.5 PX data), above 30000 nM.

As for `COc1cc(-c2ccc(F)c(C)c2)c(C#N)cc1-c1nccc2cc(S(=O)(=O)Nc3ccncn3)ccc12` [Example 155, 1-(2-cyano-4′-fluoro-5-methoxy-3′-methyl-4-biphenylyl)-N-4-pyrimidinyl-6-isoquinolinesulfonamide], the results for the IC50 on Nav 1.7 (in-vitro Nav 1.7 PX data) and at Nav 1.5 (in-vitro Nav 1.5 PX data) were 45.5 nM and 23400 nM, respectively.

Turning to `COc1cc(-c2cccc(C)c2)c(C#N)cc1-c1nccc2cc(S(=O)(=O)Nc3ccncn3)ccc12` [Example 156, 1-(2-cyano-5-methoxy-3′-methyl-4-biphenylyl)-N-4-pyrimidinyl-6-isoquinolinesulfonamide], the IC50 is 47.3 nM at Nav 1.7 (in-vitro Nav 1.7 PX data) and 30800 nM at Nav 1.5 (in-vitro Nav 1.5 PX data).

As to `COc1cc(-c2ccccc2C)c(C#N)cc1-c1nccc2cc(S(=O)(=O)Nc3ccncn3)ccc12` [Example 157, 1-(2-cyano-5-methoxy-2′-methyl-4-biphenylyl)-N-4-pyrimidinyl-6-isoquinolinesulfonamide], the IC50 is 206 nM at Nav 1.7 (in-vitro Nav 1.7 PX data) and above 10000 nM on Nav 1.5 (in-vitro Nav 1.5 PX data).

As for `COc1cc(-c2ccc(F)c(Cl)c2)c(C#N)cc1-c1nccc2cc(S(=O)(=O)Nc3ccncn3)ccc12` [Example 158, 1-(3′-chloro-2-cyano-4′-fluoro-5-methoxy-4-biphenylyl)-N-4-pyrimidinyl-6-isoquinolinesulfonamide], the figures for the IC50 against Nav 1.7 (in-vitro Nav 1.7 PX data) and at Nav 1.5 (in-vitro Nav 1.5 PX data) were 19.4 nM and 5850 nM, respectively.

For the compound `COc1cc(-c2ccc(C)c(Cl)c2)c(C#N)cc1-c1nccc2cc(S(=O)(=O)Nc3ccncn3)ccc12` [Example 159, 1-(3′-chloro-2-cyano-5-methoxy-4′-methyl-4-biphenylyl)-N-4-pyrimidinyl-6-isoquinolinesulfonamide], the IC50 against Nav 1.7 (in-vitro Nav 1.7 PX data) was 38.7 nM; on Nav 1.5 (in-vitro Nav 1.5 PX data), above 30000 nM.

`COc1cc(-c2cc(C)cc(Cl)c2)c(C#N)cc1-c1nccc2cc(S(=O)(=O)Nc3ccncn3)ccc12` [Example 160, 1-(3′-chloro-2-cyano-5-methoxy-5′-methyl-4-biphenylyl)-N-4-pyrimidinyl-6-isoquinolinesulfonamide]: the values for the IC50 against Nav 1.7 (in-vitro Nav 1.7 PX data) and on Nav 1.5 (in-vitro Nav 1.5 PX data) were 13.8 nM and 18300 nM, respectively.

As to `COc1cc(-c2ccc(Cl)c(C)c2)c(C#N)cc1-c1nccc2cc(S(=O)(=O)Nc3ccncn3)ccc12` [Example 161, 1-(4′-chloro-2-cyano-5-methoxy-3′-methyl-4-biphenylyl)-N-4-pyrimidinyl-6-isoquinolinesulfonamide], the results for the IC50 against Nav 1.7 (in-vitro Nav 1.7 PX data) and on Nav 1.5 (in-vitro Nav 1.5 PX data) were 17.4 nM and above 30000 nM, respectively.

Consider `COc1ccc(F)cc1-c1cc(OC)c(-c2nccc3cc(S(=O)(=O)Nc4ccncn4)ccc23)cc1C#N` [Example 162, 1-(2-cyano-5′-fluoro-2′,5-dimethoxy-4-biphenylyl)-N-4-pyrimidinyl-6-isoquinolinesulfonamide], for which the IC50 at Nav 1.7 (in-vitro Nav 1.7 PX data) is 470 nM; on Nav 1.5 (in-vitro Nav 1.5 PX data), above 10000 nM.

On to `COc1cc(-c2ccc(C)c(F)c2)c(C#N)cc1-c1nccc2cc(S(=O)(=O)Nc3ccncn3)ccc12` [Example 163, 1-(2-cyano-3′-fluoro-5-methoxy-4′-methyl-4-biphenylyl)-N-4-pyrimidinyl-6-isoquinolinesulfonamide], for which the IC50 was 92.1 nM on Nav 1.7 (in-vitro Nav 1.7 PX data) and above 10000 nM at Nav 1.5 (in-vitro Nav 1.5 PX data).

On to `COc1cc(Oc2ccccc2C)ccc1-c1nccc2cc(S(=O)(=O)Nc3ccncn3)ccc12` [Example 170, 1-(2-methoxy-4-(2-methylphenoxy)phenyl)-N-4-pyrimidinyl-6-isoquinolinesulfonamide], for which the values for the IC50 at Nav 1.7 (in-vitro Nav 1.7 PX data) and at Nav 1.5 (in-vitro Nav 1.5 PX data) were 171 nM and above 10000 nM, respectively.

With `COc1cc(-c2ccc(F)c(F)c2)c(C)cc1-c1nccc2cc(S(=O)(=O)Nc3nncs3)ccc12` [Example 171, 1-(3′,4′-difluoro-5-methoxy-2-methyl-4-biphenylyl)-N-1,3,4-thiadiazol-2-yl-6-isoquinolinesulfonamide], the figures for the IC50 against Nav 1.7 (in-vitro Nav 1.7 PX data) and on Nav 1.5 (in-vitro Nav 1.5 PX data) were 33.4 nM and above 10000 nM, respectively.

Regarding `COc1cc(-c2cc(F)cc(F)c2)c(C)cc1-c1nccc2cc(S(=O)(=O)Nc3nncs3)ccc12` [Example 172, 1-(3′,5′-difluoro-5-methoxy-2-methyl-4-biphenylyl)-N-1,3,4-thiadiazol-2-yl-], the IC50 is 34.9 nM on Nav 1.7 (in-vitro Nav 1.7 PX data) and above 10000 nM on Nav 1.5 (in-vitro Nav 1.5 PX data).

Turning to `COc1cc(Oc2ccc(F)cc2)ccc1-c1nccc2cc(S(=O)(=O)Nc3nncs3)ccc12` [Example 174, 1-(4-(4-fluorophenoxy)-2-methoxyphenyl)-N-1,3,4-thiadiazol-2-yl-6-isoquinolinesulfonamide], the IC50 at Nav 1.7 (in-vitro PX (PatchXpress) data) is 141 nM; at Nav 1.5 (in-vitro PX (PatchXpress) data), above 10000 nM.

Regarding `COc1cc(Oc2ccc(F)c(F)c2)ccc1-c1nccc2cc(S(=O)(=O)Nc3ccncn3)ccc12` [Example 175, 1-(4-(3,4-difluorophenoxy)-2-methoxyphenyl)-N-4-pyrimidinyl-6-isoquinolinesulfonamide], the concentration for half-maximal inhibition (IC50) against Nav 1.7 (in-vitro PX (PatchXpress) data) is 197 nM; at Nav 1.5 (in-vitro PX (PatchXpress) data), above 10000 nM.

Consider `COc1cc(Oc2ccc(C)c(C)c2)ccc1-c1nccc2cc(S(=O)(=O)Nc3ccncn3)ccc12` [Example 176, 1-(4-(3,4-dimethylphenoxy)-2-methoxyphenyl)-N-4-pyrimidinyl-6-isoquinolinesulfonamide], for which the IC50 on Nav 1.7 (in-vitro PX (PatchXpress) data) was 204 nM; at Nav 1.5 (in-vitro PX (PatchXpress) data), above 10000 nM.

For the compound `COc1cc(Oc2ccc(C)c(F)c2)ccc1-c1nccc2cc(S(=O)(=O)Nc3ccncn3)ccc12` [Example 177, 1-(4-(3-fluoro-4-methylphenoxy)-2-methoxyphenyl)-N-4-pyrimidinyl-6-isoquinolinesulfonamide], the IC50 on Nav 1.7 (in-vitro PX (PatchXpress) data) is 99.3 nM; on Nav 1.5 (in-vitro PX (PatchXpress) data), above 10000 nM.

`COc1cc(Oc2cc(C)cc(F)c2)ccc1-c1nccc2cc(S(=O)(=O)Nc3ccncn3)ccc12` [Example 179, 1-(4-(3-fluoro-5-methylphenoxy)-2-methoxyphenyl)-N-4-pyrimidinyl-6-isoquinolinesulfonamide]: the IC50 against Nav 1.7 (in-vitro PX (PatchXpress) data) was 77 nM; on Nav 1.5 (in-vitro PX (PatchXpress) data), above 10000 nM.

Consider `COc1cc(Oc2cc(C)cc(C)c2)ccc1-c1nccc2cc(S(=O)(=O)Nc3ccncn3)ccc12` [Example 180, 1-(4-(3,5-dimethylphenoxy)-2-methoxyphenyl)-N-4-pyrimidinyl-6-isoquinolinesulfonamide], for which the results for the IC50 against Nav 1.7 (in-vitro PX (PatchXpress) data) and on Nav 1.5 (in-vitro PX (PatchXpress) data) were 520 nM and above 10000 nM, respectively.
